smiles,measurement,value
"CCCCCCCCCCCC(=O)NCCCN(C)C [D, dodecylamidopropyl dimethylamine]",stability at high temperature,not stable

# Source: patent US20200010756A1, “SURFACTANT FOR ENHANCED OIL RECOVERY” (Total S.A., priority 2017, published 2020)
